Laboratory results taken from patent US8652791B2, “Method of classifying human subjects having adolescent idiopathic scoliosis (AIS) and method for screening for a compound useful in the treatment of AIS and related syndromes causing spinal deformities” (Hopital Sainte-Justine, priority 2002, dated 2014).
“Also recorded” adds a separate entry of the source.

Columns and labels:
[1] = tested on: Gi proteins (inhibition of adenylyl cyclase activity in osteoblasts); test: cAMP accumulation assay in osteoblasts, Gpp(NH)p as agonist; assay type: cell-based, human; settings: forskolin-stimulated
Protocol: The functionality of Gi proteins was assessed by investigating their ability to inhibit adenylyl cyclase activity in osteoblasts. To obtain inhibition curve of cAMP production the non-hydrolysable analogue of GTP, Gpp(NH)p (guanilyl 5′-imidophosphate, Sigma™) was added to the forskolin-containing samples in concentrations ranging from 10 nM to 100 μM. The cAMP content was determined as described above in similar assays with melatonin.
The values reported in FIG. 8 were detected after the administration of 10^−9M Gpp(NH)p, a GTP non-hydrolysable analogue.

[2] = tested on: forskolin-stimulated adenylyl cyclase activity in osteoblasts; test: cAMP accumulation assay in osteoblasts, melatonin as agonist; assay type: cell-based, human
Protocol: Osteoblasts from patients with AIS and control subjects were seeded in quadruplet on 24-wells plate (1×10^5 cells/well) and incubated either with the vehicle alone, dimethyl sulphoxide (DMSO, Sigma™, Oakville, ON, Canada) or the diterpene forskolin (10^−5M, Sigma™) to stimulate the cAMP formation. Inhibition curves of cAMP production were generated by adding melatonin to the forskolin-containing samples in concentrations ranging from 10^−11M to 10^−5M in a final volume of 1 ml of DMEM media with 0.5% bovine serum albumin (BSA, Sigma™). After a 30-minute incubation at 37° C., the cells were lysed and the sample centrifuged at 4° C. The cAMP content was determined in 200 μl aliquot of the supernatant using an enzyme immunoassay kit (Amersham-Pharmacia Biosciences, Mississauga, ON, Canada). All assays were performed in duplicate.
A method of screening of the present invention was performed and identified estrogen as one compound able to modulate the melatonin-signaling pathway impairment in AIS patients. Experiments were performed showing the effect of increasing concentrations of melatonin (10^−11 to 10^−5M) used as known agonist of melatonin-signaling pathway on forskolin-stimulated adenylyl cyclase activity in osteoblasts from two patients with AIS (group 3 see Table 2) treated or not with a physiological dose of estradiol (10^−10M). Results illustrated in panels A and B of FIG. 19 correspond to AIS patient numbered 13 and 29 in Table 1, respectively.

[3] = tested on: Gi proteins coupled to MT1 and MT2 receptors; test: Co-immunoprecipitation of Gi proteins coupled to melatonin receptors and their phosphorylation state; assay type: cell-based, human; settings: for phosphorylated forms of Gi3 and Gi2 in MT1 or MT2 immune complexes: overnight treatment of the cells
Protocol: Co-immunoprecipitation assays were performed with anti-MT1 and anti-MT2 specific antibodies (kind gifts of Dr Debora Angeloni and Prof Franco Fraschini, University of Milan, Italy) to identify Gi proteins coupled to individual melatonin receptor in human MG-63 osteoblasts (FIG. 9).
The specific antibodies were incubated with membrane fractions purified from osteoblasts untreated and treated with melatonin (10^−9M), genistein or herbimycin (1 μM, tyrosine kinase inhibitors, Sigma™) or sodium orthovanadate, Na3VO4, (1 mM, tyrosine phosphatase inhibitor, Sigma™) for at least 16 h. Presence of coupled Gi proteins in respective immune-complexes were determined by SDS-PAGE and Western blot with specific Gi antibodies (Santa Cruz Biotechnology Inc., Santa Cruz, Calif., USA) and phosphorylation status of these coupled Gi proteins were determined using anti-phosphoserine, phosphothreonine and phosphotyrosine antibodies (Sigma™) using the same membrane after stripping. Purified recombinant Gi proteins were used as control for antibody specificity.

human osteoclasts = test: Osteoclast pit resorption assay on bone matrix; assay type: cell-based
Protocol: The inhibitory effect of melatonin on osteoclasts activity was performed using normal human osteoclasts derived from peripheral blood. Mel, melatonin; luz, luzindole, a specific MT2 antagonist;
Other functional assays with melatonin using osteoclasts derived from monocytes/lymphocytes fraction isolated from peripheral blood of AIS patients and control subjects are performed. Primary osteoclasts are derived from the peripheral blood of patients and non-scoliotic subjects using 10 ml of blood or less. Anticoagulant-treated blood is layered on the Ficoll-Paque™ solution and centrifuged for a short period of time. Differential migration during centrifugation results in the formation of layers containing different blood cells. Because of their lower density, the lymphocytes are found at the interface between the plasma and the Ficoll-Paque™ with other slowly sedimenting particles (platelet and monocytes). The lymphocytes are then recovered from the interface and subjected to a short washing step with a balanced salt solution to remove any platelets, Ficoll-Paque™ and plasma. The cells are then counted and seeded at high density (1×10^6 cells per cm^2) onto artificial bone or dentin matrix in α-MEM with 10% FBS and antibiotics. After a few days, cells that remain adherent will start to differentiate into osteoclasts, forming large multinucleate cells after 15-20 days.

[4] = tested on: forskolin-stimulated adenylyl cyclase activity in myoblasts; test: cAMP accumulation assay in skeletal myoblasts, melatonin as agonist; assay type: cell-based, human; settings: myoblasts from AIS patients
Protocol: The functionality of melatonin signaling is assessed by investigating the ability of Gi proteins to inhibit stimulated adenylyl cyclase activity in intact skeletal myoblasts. Cells prepared from patients with AIS and control subjects are seeded in quadruplet on 24-wells plate (1×10^5 cells/well) and incubated either with dimethyl sulphoxide (DMSO, Sigma™) or forskolin (10^−5M, Sigma™) to stimulate the cAMP formation. To obtain the inhibition curve of cAMP production, melatonin is added to the forskolin-containing samples in concentrations ranging from 10^−11M to 10^−5M in a final volume of 1 ml of DMEM media with 0.5% bovine serum albumin (BSA). After a 30-minute incubation at 37° C., the cells are lysed and the sample centrifuged at 4° C. The cAMP content is determined in 200 μl aliquot of the supernatant using an enzyme immunoassay kit (Amersham-Pharmacia Biosciences).

[5] = Bone mineral density (DEXA) in pinealectomized chicken; assay type: in vivo; settings: melatonin 3 mg/kg/day ip
Protocol: Treatment with melatonin, 3 mg/kg/day ip, increased BMD in treated animals. […]

[6] = tested on: osteocalcin (OC), osteopontin (OPN) and bone sialoprotein (BSP); test: Expression analysis of osteoblast terminal differentiation markers; assay type: cell-based; settings: osteoblasts in vitro
human osteoblasts = test: Osteoblast proliferation assay ([3H]-thymidine incorporation); assay type: cell-based; settings: melatonin 10^-9M
Protocol: An assay was performed to compare the proliferation of osteoblasts of normal subjects with that of scoliotic patients. […]

[7] = tested on: MT1 receptor expression in MC3T3-E1 cells; test: RT-PCR expression analysis of melatonin receptors; assay type: cell-based; settings: melatonin 10^-7M
Protocol: RT-PCR were performed with specific primers corresponding to melatonin receptor subtypes, MT1 (panel A, FIG. 7), MT2 (panel B, FIG. 7) and OPN (panel C, FIG. 7) using 2 μg of RNA isolated every 2 h during a 24 h cycle from MC3T3-E1 cells treated (+) or not (−) with melatonin (10^−7M). […] PCR products were separated on a 1.5% agarose gel and visualized by ethidium bromide staining.

[8] = tested on: scoliosis formation after pinealectomy; settings: treatment after pinealectomy in both animal models (chicken, bipedal rats); cited from earlier work

Nc1nc2c(ncn2[C@@H]2O[C@H](COP(=O)(O)OP(=O)(O)NP(=O)(O)O)[C@@H](O)[C@H]2O)c(=O)[nH]1 [Gpp(NH)p, guanilyl 5′-imidophosphate]
inhibitory effect on cAMP levels ([1]; osteoblasts from a majority of AIS patients): no inhibitory effect
effect on cAMP levels ([1]; osteoblasts from control subjects): reduced cAMP levels

C[C@]12CC[C@@H]3c4ccc(O)cc4CC[C@H]3[C@@H]1CC[C@@H]2O [estradiol]
effect on the inhibitory effect of melatonin on forskolin-stimulated adenylyl cyclase activity ([2]; osteoblasts from two AIS patients (group 3), estradiol 10^-10M, melatonin 10^-11 to 10^-5M): further block the inhibitory effect of melatonin

O=c1c(-c2ccc(O)cc2)coc2cc(O)cc(O)c12 [genistein]
phosphorylated forms of Gi3 and Gi2 in MT1 or MT2 immune complexes [3]: completely abolished the presence of both phosphorylated forms

CC(=O)NCCc1c(Cc2ccccc2)[nH]c2ccccc12 [luzindole]
effect on the inhibition of osteoclasts resorption activity by melatonin (human osteoclasts; normal human osteoclasts, luzindole added with melatonin): prevents or reduces the inhibitory effect of melatonin

COc1ccc2[nH]cc(CCNC(C)=O)c2c1 [melatonin]
inhibition of cAMP accumulation induced by forskolin ([4]; melatonin 10^-11 to 10^-5M, preliminary tests): incapacity of melatonin to inhibit cAMP accumulation
inhibition of cAMP accumulation induced by forskolin ([4]; supra pharmacological dose 10^-5M): able in 2 cases to inhibit cAMP accumulation
bone mineral density (BMD) [5]: increased BMD
effect on cAMP accumulation ([2]; AIS group 1 osteoblasts): increased cAMP accumulation
inhibition of cAMP accumulation ([2]; AIS group 2 osteoblasts, even at 10^-7M or 10^-5M melatonin): no significant inhibition; also recorded: did not respond
response toward melatonin treatment (cAMP) ([2]; AIS group 3 osteoblasts): weak response
inhibitory effects on adenylyl cyclase activity ([2]; AIS group 3 osteoblasts, higher doses of melatonin): some significant inhibitory effects
inhibition of cAMP accumulation ([2]; AIS group 3 osteoblasts, physiological dose 10^-9M): no significant inhibition
reduction of cAMP levels (inhibition of forskolin-stimulated adenylyl cyclase activity) ([2]; osteoblasts from control subjects, forskolin 10^-5M, melatonin 10^-11M to 10^-5M, dose-dependent): 60-70%
inhibition of forskolin-stimulated adenylyl cyclase activity ([2]; osteoblasts from patients with AIS): lack of inhibition
binding of Gi3 and Gi2 proteins to MT2 receptors ([3]; osteoblast purified membranes, in presence of melatonin): increased
phosphorylated forms of Gi3 and Gi2 in MT1 or MT2 immune complexes [3]: completely abolished the presence of both phosphorylated forms
osteoclasts resorption activity (human osteoclasts; normal human osteoclasts derived from peripheral blood, melatonin 10^-9M to 10^-7M): inhibits osteoclasts resorption activity
resorbing activity of osteoclasts (human osteoclasts; osteoclasts isolated from animals with AIS or related syndrome, reasonably predicted): does not affect resorbing activity
expression of osteoblast terminal differentiation markers OC, OPN and BSP [6]: up-regulates
osteoblast growth rate ([3H]-thymidine incorporation) (human osteoblasts; normal osteoblasts): increases linearly
osteoblast growth rate ([3H]-thymidine incorporation) (human osteoblasts; osteoblasts from scoliotic patients): did not respond
MT1 receptor subtype expression (RT-PCR) [7]: down regulated
formation of scoliosis after pinealectomy [8]: prevented the formation of scoliosis
